Where two headings read alike, the source gives them in different places.
Tests used:
[1] = system: P. falciparum male gametocytes; test: P. falciparum Dual Gamete Formation Assay (PfDGFA), male readout (exflagellation); format: cell-based, Plasmodium falciparum NF54; conditions: for Activity: hit = >50% inhibition in male or female readout in at least 3 replicates, 0 = no class assigned; for inhibition at 2 µM: 24h preincubation with gametocytes
Method: (§1) P. falciparum NF54 (originally isolated from an imported malaria case in the Netherlands in the 1980s; BEI Resources, cat. No. MRA-1000) strain asexual parasites were maintained between 0.3–5% parasitaemia by regular passage in complete culture medium (RPMI supplemented with 25 mM HEPES, 50 μg ml^−1 hypoxanthine, 4.8 g l^−1 NaHCO3, 2mM L-glutamine, 5% pooled type AB serum, 0.5% Albumax II (Gibco)) at 4% haematocrit in washed whole blood (National Blood and Transfusion Service or Centro de Transfusiones de la Comunidad de Madrid CTCM) under a 1% O2/3% CO2/96% N2 environment. Gametocytes were induced by seeding culture flasks at 2% parasitaemia/4% haematocrit and subjecting them to daily medium changes for 14 days whilst maintaining a temperature of 37°C at all times. On Day 14, the maturity of gametocytes was assessed by quantifying male gametogenesis (exflagellation). A 20 μl sample of gametocyte culture was mixed with equal volume of ookinete medium (complete culture medium supplemented with 0.1 μM xanthurenic acid) at room temperature and transferred to a haemocytometer. After 20 min at room temperature, exflagellation was accurately quantified as described in Delves et al. 2016 [17].
(§2) The Pf DGFA was performed as described in Delves et al. 2016 [17]. […] Plates were then incubated for 24 h at 37°C in a humidified box under a 1% O2/3% CO2/96% N2 gas mix. Gametogenesis was triggered by addition of 10 μl per well of ookinete medium + 0.27 μg ml^-1 Cy3-labelled anti-Pfs25 antibody. Plates were incubated on a metal block at 4°C for 4 min to ensure even cooling, then 28°C for a further 4 min. Exflagellation was recorded by capturing 10 frames over 1 s under brightfield illumination using a x4 objective with a 1.5x zoom (effectively x6) attached to an automated Nikon Ti fluorescence microscope. After recording exflagellation, plates were incubated for a further 24 h in the dark at 28°C to ensure maximal expression of Pfs25 by female gametes. The plates were then returned to the microscope and female gametes imaged at x6 using fluorescence microscopy.
(§3) Exflagellation centres and female gametes were quantified using custom image analysis pipelines developed within ICY Bioimage Analysis (https://icy.bioimageanalysis.org/).

[2] = system: P. falciparum female gametocytes; test: P. falciparum Dual Gamete Formation Assay (PfDGFA), female readout (Pfs25-positive female gametes); format: cell-based, Plasmodium falciparum NF54; conditions: for inhibition at 2 µM: 24h preincubation with gametocytes
Method: as §1, §2, §3

[3] = 2µM, 24h preincubation with gametocytes prior to induction of gametogenesis, average of replicates
[4] = 2µM, 24h preincubation with gametocytes prior to induction of gametogenesis, replicate R1
[5] = 2µM, 24h preincubation with gametocytes prior to induction of gametogenesis, replicate R4
[6] = 2µM, 24h preincubation, number of replicates with >50% inhibition in the male readout
[7] = 2µM, 24h preincubation with gametocytes prior to induction of gametogenesis, replicate R3
[8] = 2µM, 24h preincubation, number of replicates with >50% inhibition in the female readout
[9] = 2µM, 24h preincubation, hits selected on >50% inhibition in the male readout across replicates
[10] = PfDGFA at 2µM, 24h preincubation
[11] = 2µM, 24h preincubation, hits selected on >50% inhibition in the female readout across replicates
[12] = PfDGFA at 2µM, 24h preincubation with gametocytes prior to induction of gametogenesis, replicate R1
[13] = PfDGFA at 2µM, 24h preincubation with gametocytes prior to induction of gametogenesis, replicate R3
[14] = PfDGFA at 2µM, 24h preincubation with gametocytes prior to induction of gametogenesis, replicate R4
[15] = PfDGFA at 2µM, 24h preincubation, average of replicates

## Cc1ccc(-n2cc(CNCC3CCN(CCO)CC3)c(-c3ccc(F)cc3)n2)cc1 [TCMDC-124689]
[1]; [3]
  Average inhibition male (%): 53.6%
[1]; [4]
  % inhibition male (individual replicates) R1: 49.0%
[1]; [5]
  % inhibition male (individual replicates) R4: 58.1%
[1]; [6]
  HitlevelM: 2
[2]; [3]
  Average inhibition female (%): 19.9%
[2]; [4]
  % inhibition female (individual replicates) R1: 20.1%
[2]; [7]
  % inhibition female (individual replicates) R3: 19.4%
[2]; [5]
  % inhibition female (individual replicates) R4: 10.0%
[2]; [8]
  HitlevelF: 0

## O=C(c1ccc([N+](=O)[O-])o1)N1CCN(c2nc3c(F)cc(F)cc3s2)CC1 [TCMDC-125149]
[1]; [3]
  Average inhibition male (%): 6.8%
[1]; [4]
  % inhibition male (individual replicates) R1: 35.5%
[1]; [7]
  % inhibition male (individual replicates) R3: -37.1%
[1]; [5]
  % inhibition male (individual replicates) R4: -11.8%
[1]; [9]
  HitlevelM: 0
[1]; [10]
  Activity: 0
[2]; [3]
  Average inhibition female (%): 6.5%
[2]; [4]
  % inhibition female (individual replicates) R1: 10.3%
[2]; [7]
  % inhibition female (individual replicates) R3: -4.5%
[2]; [5]
  % inhibition female (individual replicates) R4: 0.07%
[2]; [11]
  HitlevelF: 0

## CNCCCNCc1ccc(-c2ccc(F)c(Cl)c2)o1.Cl [TCMDC-125237]
[1]; [3]
  Average inhibition male (%): 15.1%
[1]; [4]
  % inhibition male (individual replicates) R1: 6.0%
[1]; [5]
  % inhibition male (individual replicates) R4: 19.5%
[1]; [9]
  HitlevelM: 0
[1]; [10]
  Activity: 0
[2]; [3]
  Average inhibition female (%): 13.7%
[2]; [4]
  % inhibition female (individual replicates) R1: 17.7%
[2]; [7]
  % inhibition female (individual replicates) R3: 9.1%
[2]; [5]
  % inhibition female (individual replicates) R4: 15.1%
[2]; [11]
  HitlevelF: 0

## COCCn1c(Sc2ncnc3sccc23)nc2ccccc21 [TCMDC-125258]
[1]; HepG2 Tox50 versus male IC50
  Selectivity Ratio M: 81.39
[1]; Plasmodium falciparum, PfDGFA at 2µM, average of replicates, read-out: Average inhibition male (%)
  inhibition at 2 µM: 69.9%
[1]; Plasmodium falciparum, PfDGFA at 2µM, replicate R1, read-out: % inhibition male (individual replicates) R1
  inhibition at 2 µM: 86.4%
[1]; Plasmodium falciparum, PfDGFA at 2µM, replicate R2, read-out: % inhibition male (individual replicates) R2
  inhibition at 2 µM: 73.7%
[1]; Plasmodium falciparum, PfDGFA at 2µM, replicate R3, read-out: % inhibition male (individual replicates) R3
  inhibition at 2 µM: 49.8%
[1]; Plasmodium falciparum, PfDGFA at 2µM, replicate R4, read-out: % inhibition male (individual replicates) R4
  inhibition at 2 µM: 69.6%
[1]; Plasmodium falciparum, PfDGFA, 24 h incubation with gametocytes before induction, exflagellation readout, read-out: Male IC50
  IC50: 1.23 µM
[1]; number of replicates with >50% inhibition in the male readout, 2µM
  HitlevelM: 3
[2]; HepG2 Tox50 versus female IC50
  Selectivity ratio F: 94.48
[2]; Plasmodium falciparum, PfDGFA at 2µM, average of replicates, read-out: Average inhibition female (%)
  inhibition at 2 µM: 60.4%
[2]; Plasmodium falciparum, PfDGFA at 2µM, replicate R1, read-out: % inhibition female (individual replicates) R1
  inhibition at 2 µM: 48.4%
[2]; Plasmodium falciparum, PfDGFA at 2µM, replicate R2, read-out: % inhibition female (individual replicates) R2
  inhibition at 2 µM: 75.4%
[2]; Plasmodium falciparum, PfDGFA at 2µM, replicate R3, read-out: % inhibition female (individual replicates) R3
  inhibition at 2 µM: 37.4%
[2]; Plasmodium falciparum, PfDGFA at 2µM, replicate R4, read-out: % inhibition female (individual replicates) R4
  inhibition at 2 µM: 80.3%
[2]; Plasmodium falciparum, PfDGFA, 24 h incubation with gametocytes before induction, female gamete readout, read-out: Female IC50
  IC50: 1.06 µM
[2]; number of replicates with >50% inhibition in the female readout, 2µM
  HitlevelF: 2

## NC(=O)c1ccsc1NC(=O)CNC(c1ccccc1)c1ccc(Cl)cc1 (stereo not drawn) [TCMDC-125330]
[1]; [12]
  % inhibition male (individual replicates) R1: -5.4%
[1]; [13]
  % inhibition male (individual replicates) R3: -28.2%
[1]; [14]
  % inhibition male (individual replicates) R4: -28.5%
[1]; [15]
  Average inhibition male (%): -19.7%
[2]; [12]
  % inhibition female (individual replicates) R1: 0.32%
[2]; [13]
  % inhibition female (individual replicates) R3: -9.3%
[2]; [14]
  % inhibition female (individual replicates) R4: 6.9%
[2]; [15]
  Average inhibition female (%): 1.5%

## O=C(Nc1nc(-c2ccccn2)cs1)c1ccc(S(=O)(=O)N2CCc3ccccc32)cc1 [TCMDC-125432]
[1]; [3]
  Average inhibition male (%): -21.9%
[1]; [4]
  % inhibition male (individual replicates) R1: -19.8%
[1]; [7]
  % inhibition male (individual replicates) R3: -49.6%
[1]; [5]
  % inhibition male (individual replicates) R4: -25.8%
[1]; [6]
  HitlevelM: 0
[2]; [3]
  Average inhibition female (%): 23.2%
[2]; [4]
  % inhibition female (individual replicates) R1: 27.4%
[2]; [7]
  % inhibition female (individual replicates) R3: 14.7%
[2]; [5]
  % inhibition female (individual replicates) R4: 30.9%
[2]; [8]
  HitlevelF: 0

## COc1ccc(-c2csc3nc(C)nc(Cl)c23)cc1OC [TCMDC-125523]
[1]; [3]
  Average inhibition male (%): -3.5%
[1]; [4]
  % inhibition male (individual replicates) R1: -8.3%
[1]; [7]
  % inhibition male (individual replicates) R3: -15.7%
[1]; [5]
  % inhibition male (individual replicates) R4: 6.2%
[1]; [9]
  HitlevelM: 0
[1]; [10]
  Activity: 0
[2]; [3]
  Average inhibition female (%): 3.7%
[2]; [4]
  % inhibition female (individual replicates) R1: 4.5%
[2]; [7]
  % inhibition female (individual replicates) R3: -29.0%
[2]; [5]
  % inhibition female (individual replicates) R4: 16.0%
[2]; [11]
  HitlevelF: 0
